{"source": "patent US8604085B2", "about": "“Bupropion hydrobromide polymorphs” (Valeant International Bermuda, priority 2008, dated 2013)", "type_in_all_cases": "physicochemical", "key": {"[1]": {"assay": "Release of bupropion base from the salt", "protocol": "It was previously observed that when 150 mg of bupropion HCl was tested for its release of bupropion, the base value that was released was 130 mg. However, when 150 mg of bupropion HBr was tested, the base value released was only 112 mg. Thus, the amount of bupropion HBr had to be increased in order to increase the base value from 112 mg to 130 mg, which was the target."}, "[2]": {"assay": "TGA and DSC characterization", "protocol": "The PXRD diffraction patterns were obtained on X-ray powder diffraction PANalytical X′pert Pro equipped with X′Celerator, in a measurement range between 3 and 40 2 theta. All the DSC experiments were performed with a DSC 7 Perkin Elmer instrument in a temperature range between 25° C. and 250° C. with a heating rate of 10° C./min.\nAll the TGA experiments were conducted with a TGA 7 Perkin Elmer instrument in a temperature range between 39° C. and 310° C. with a heating rate of 10° C./min.\nPXRD, DSC, TGA and IR analyses were obtained for Bupropion Hydrobromide Polymorph Form I, Form II, Form III, Form IV, Form V, Form VI, and Form VII. PXRD analyses were obtained for the amorphous form. With respect to the PXRD analyses, the Peak List is shown for Form I, Form II, Form III, Form IV, Form V, Form VI, Form VII and the amorphous form in Table 56, Table 57, Table 58, Table 59, Table 60, Table 61, Table 62 and Table 63 respectively."}, "[3]": {"assay": "Precipitation by anti-solvent (ethyl acetate) addition at room temperature", "from_the_text": "The samples were filtered and analyzed by X-ray diffraction. Form I converts into Form II using chloroform, and also with benzyl alcohol. The other experiments yield only Form I. See Table 54 for Form I precipitation results by anti-solvent addition."}, "[4]": {"assay": "Stability tests on bupropion hydrobromide polymorphs in humidity chamber (XRD pattern)", "settings": "40° C., 85% R.H., open sample-holder", "protocol": "Stability tests were performed on bupropion hydrobromide Form I, Form II, Form III, Form IV, Form V and Form VI. The powders were stored in a controlled atmosphere (85% R.H.) at 40° C. Form I and Form II were stored for 7 and 30 days respectively, while the other forms were stored only for 30 days. The sample was positioned on the sample-holder which was introduced, without any cover, into the humidity chamber at 40° C. The layer of the sample on the sample-holder was about 0.5 cm.\nIn addition, stability tests were performed on bupropion hydrobromide Form VII."}, "[5]": {"assay": "Precipitation from oversaturated solution at 100° C., cooling rate 0.45° C./min", "protocol": "Bupropion hydrobromide Form I was dissolved at 100° C. in solvent to obtain the oversaturated solution. The cooling rate applied was 0.45° C./min. The samples were filtered and analyzed by X-ray diffraction. Form I converts into Form VI using 1-Propanol, and into Form V using 1,4-Dioxane. The other experiments yield only Form I. See Table 55 for Form I precipitation results by oversaturated solution. […]"}, "[6]": {"assay": "Slurries in 2-propanol at room temperature, 50° C. and 80° C.", "settings": "form by XRD", "protocol": "0.050 g of Form I were suspended in 4 ml of solvent and stirred at room temperature. for 1 week (7 days). The sample was filtered and analyzed by X-ray diffraction.\n0.040 g of Form I+0.040 g of Form II were suspended in 4 ml of solvent and stirred at room temperature for 1 week (7 days). The sample was filtered and analyzed by X-ray diffraction experiments.\n0.050 g of Form II were suspended in 4 ml of solvent and stirred at room temperature for 1 week (7 days). The sample was filtered and analyzed by X-ray diffraction experiments.\n0.050 g of Form I were suspended in 4 ml of solvent and stirred at 50° C. for 1 Week (7 days). The sample was filtered and analyzed by X-ray diffraction experiments.\n0.040 g of Form I+0.040 g of Form II were suspended in 4 ml of solvent and stirred at 50° C. for 1 week (7 days). The sample was filtered and analyzed by X-ray diffraction experiments.\nForm I+Form II were suspended in solvent and stirred at 80° C. for 14 hours. The sample was filtered and analyzed by X-ray diffraction experiments. […] Slurry in 2-propanol at 80° C. is an atypical experiment because if we consider the boiling point of the solvent, it could be defined as a combination between a slurry and precipitation experiment. Form I was obtained during the precipitation from supersaturated solution by 2-propanol. However the high temperature and the reflux produce the energetic conditions needed by the stable crystal form (Form II) to convert to the metastable crystal form (Form I)."}}}
{"smiles": "Br.CC(NC(C)(C)C)C(=O)c1cccc(Cl)c1", "note": "(stereo not drawn) [Bupropion hydrobromide, 3′-chloro-2-t-butylamino-1-propiophenone hydrobromide]", "values": [{"measurement": "base value that was released", "setting": "[1]; 150 mg of the salt tested", "result": 112, "unit": "mg"}, {"measurement": "base value that was released", "setting": "[1]; 174 mg of the salt tested", "result": 130, "unit": "mg"}]}
{"smiles": "Br.CC(NC(C)(C)C)C(=O)c1cccc(Cl)c1", "note": "(single isomer, unassigned) [Form I]", "values": [{"measurement": "TGA (mass change)", "setting": "[2]; successive mass-loss steps listed per polymorph", "result": "−100.04", "unit": "%"}, {"measurement": "DSC (onset ° C.)", "setting": "[2]; successive thermal events listed per polymorph", "result": 236.81, "unit": "°C"}, {"measurement": "Precipitation Result", "setting": "[3]; solvent 1-Butanol", "result": "Form I"}, {"measurement": "Precipitation Result", "setting": "[3]; solvent 1-Methyl-2-Pyrrolidone", "result": "Form I"}, {"measurement": "Precipitation Result", "setting": "[3]; solvent 1-Propanol", "result": "Form I"}, {"measurement": "Precipitation Result", "setting": "[3]; solvent 2-Methoxy Ethanol", "result": "Form I"}, {"measurement": "Precipitation Result", "setting": "[3]; solvent 2-Methyl-1-Propanol", "result": "Form I"}, {"measurement": "Precipitation Result", "setting": "[3]; solvent 2-Propanol", "result": "Form I"}, {"measurement": "Precipitation Result", "setting": "[3]; solvent Benzyl Alcohol", "result": "Form II"}, {"measurement": "Precipitation Result", "setting": "[3]; solvent Chloroform", "result": "Form II"}, {"measurement": "Precipitation Result", "setting": "[3]; solvent Dichloromethane", "result": "Form I"}, {"measurement": "Precipitation Result", "setting": "[3]; solvent Dimethylformamide", "result": "Form I"}, {"measurement": "Precipitation Result", "setting": "[3]; solvent Ethanol", "result": "Form I"}, {"measurement": "Precipitation Result", "setting": "[3]; solvent Methanol", "result": "Form I"}, {"measurement": "XRD pattern / crystal form after storage", "setting": "[4]; 7 days", "result": "did not show modification"}, {"measurement": "XRD pattern / crystal form after storage", "setting": "[4]; 30 days", "result": "did not show modification"}, {"measurement": "Precipitation Result", "setting": "[5]; solvent 1,4-Dioxane", "result": "Form V"}, {"measurement": "Precipitation Result", "setting": "[5]; solvent 1-Butanol", "result": "Form I"}, {"measurement": "Precipitation Result", "setting": "[5]; solvent 1-Methyl-2-Pyrrolidone", "result": "Form I"}, {"measurement": "Precipitation Result", "setting": "[5]; solvent 1-Propanol", "result": "Form VI"}, {"measurement": "Precipitation Result", "setting": "[5]; solvent 2-Methoxy Ethanol", "result": "Form I"}, {"measurement": "Precipitation Result", "setting": "[5]; solvent 2-Methyl-1-Propanol", "result": "Form I"}, {"measurement": "Precipitation Result", "setting": "[5]; solvent (±)2-Butanol", "result": "Form I"}, {"measurement": "Precipitation Result", "setting": "[5]; solvent Dimethyl formamide", "result": "Form I"}, {"measurement": "Precipitation Result", "setting": "[5]; solvent Dimethyl sulfoxyde", "result": "Form I"}, {"measurement": "Precipitation Result", "setting": "[5]; solvent Nitromethane", "result": "Form I"}, {"measurement": "Precipitation Result", "setting": "[5]; solvent Water", "result": "Form I"}, {"measurement": "Precipitation Result", "setting": "[5]; solvent p-Xylene", "result": "Form I"}, {"measurement": "Slurry result in 2-propanol", "setting": "[6]; 50° C., 1 week (7 days)", "result": "converted to Form II"}, {"measurement": "Slurry result in 2-propanol", "setting": "[6]; mixture Form I+Form II, 80° C., 14 hours", "result": "remained as Form I"}, {"measurement": "Slurry result in 2-propanol", "setting": "[6]; room temperature, 1 week (7 days)", "result": "converted to Form II"}]}
